Literature values, collected in US20090169606A1, “Low Flexural Strength Transdermal Tobacco Alkaloid Patch” (Fertin Pharma, priority 2005, published 2009).

Conditions: pure nicotine placed on the skin of an ordinary human being

CN1CCCC1c1cccnc1 (stereo not shown) [nicotine]
lethal dose: 50 mg
